Patent publication US10662183B2, “Inhibitors of myocardin-related transcription factor and serum response factor (MRTF/SRF)-mediated gene transcription and methods for use of the same” (THE REGENTS OF THE UNIVERSITY OF MICHIGAN, priority 2014, dated 2020)

Tested on: SRE.L-firefly luciferase reporter (Rho/MKL1 pathway) in PC-3 prostate cancer cells
Assay: SRE.L-luciferase reporter assay
Format: cell-based
Conditions: PC-3 cells transfected with Gα12Q231L, SRE.L and pRL-TK reporters, compound 19 hrs
Protocol: Seed PC-3 prostate cancer cells (40,000 cells/well) were grown in 96-well plates in 10% FBS containing DMEM medium. Cells were transiently transfected with the Ga12QL activator of the Rho/MKL1 pathway, along with the SRE.L-firefly luciferase reporter construct for 6 hours. Additionally, cells were co-transfected with the TK-Renilla luciferase reporter as an indicator of non-specific compound effects. Various concentrations of the compounds disclosed herein were added to the 96-well plates. Plates were incubated for 19 hours at 37° C. and 5% C02 in 0.5% FBS containing DMEM medium. Cells were lysed with IX Passive Lysis Buffer (Promega). Plates were incubated for 30 minutes at room temperature. Luminescence counts were read with a Victor2 (Perkin-Elmer) plate reader.
One hour prior to cell lysis for the dual luciferase assay, 10 μl: per well of WST1 reagent (Roche) was added to the 96-well plates. Plates were incubated for 1 hour at 37° C. and 5% CO2. Cell viability was measured by WST1 absorbance at 450 nm with a Victor2 (Perkin-Elmer) plate reader.
Biological activity of the compounds disclosed herein were assessed in the SRE.L luciferase reporter assay. PC-3 prostate cancer cells were co-transfected with 2 ng of the Gα12Q231L expression plasmid along with 50 ng of the SRE.L and 7 ng of the pRL-TK luciferase reporter plasmids, as described in the Materials and Methods section. Cells were treated with 0 (vehicle, DMSO alone), 1, 3, 10, 30, and 100 μM of a compound disclosed herein for 19 hrs after transfection before lysis. Luminescence was determined as described in the Materials and Methods section. Just before cell lysis, the viability of the cells was measured using the WST-1 cell proliferation reagent as described in the Materials and Methods section. Data are expressed as percentage of inhibition (DMSO alone=0%). The experiments were performed three separate times to achieve n=3 in triplicate.

Row | Compound | IC50 | IC50 (19 h)
1 | O=C(c1cccc(-c2ccco2)c1)N1CCCC(F)(C(=O)Nc2ccc(Cl)cc2)C1 (centres unmarked) [Example E-001, N-(4-chlorophenyl)-3-fluoro-1-(3-(furan-2-yl)benzoyl)piperidine-3-carboxamide] | – | 7.3 µM
2 | O=C(Nc1ccc(Cl)cc1)C1CCCN(C(=O)c2cccc(-c3ccco3)c2)C1 (centres unmarked) [Example E-002, N-(4-chlorophenyl)-1-(3-(furan-2-yl)benzoyl)piperidine-3-carboxamide] | – | 7.1 µM
3 | O=C(Nc1ccc(Cl)cc1)C1CCCN(C(=O)c2cccc(-c3ccc(Cl)o3)c2)C1 (centres unmarked) [Example E-003, 1-(3-(5-chlorofuran-2-yl)benzoyl)-N-(4-chlorophenyl)piperidine-3-carboxamide] | – | 12 µM
4 | O=C(Nc1ccc(Cl)cc1)C1CN(C(=O)c2cccc(-c3ccco3)c2)CCN1C(=O)OCc1ccccc1 (centres unmarked) [Example E-004, benzyl 2-((4-chlorophenyl)carbamoyl)-4-(3-(furan-2-yl)benzoyl)piperazine-1-carboxylate] | – | 1.8 µM
5 | CCC(=O)N1CCN(C(=O)c2cccc(-c3ccco3)c2)CC1C(=O)Nc1ccc(Cl)cc1 (centres unmarked) [Example E-005, N-(4-chlorophenyl)-4-(3-(furan-2-yl)benzoyl)-1-propionylpiperazine-2-carboxamide] | – | 19 µM
6 | CC(C)C(=O)N1CCN(C(=O)c2cccc(-c3ccco3)c2)CC1C(=O)Nc1ccc(Cl)cc1 (centres unmarked) [Example E-006, N-(4-chlorophen)-4-(3-(furan-2-yl)benzoyl)-1-isobutyrylpiperazine-2-carboxamide] | – | 12 µM
7 | COc1ccc(C(=O)N2CCN(C(=O)c3cccc(-c4ccco4)c3)CC2C(=O)Nc2ccc(Cl)cc2)cc1 (centres unmarked) [Example E-007, N-(4-chlorophenyl)-4-(3-(furan-2-yl)benzoyl)-1-(4-methoxybenzoyl)piperazine-2-carboxamide] | – | 15 µM
8 | CC(=O)N1CCN(C(=O)c2cccc(-c3ccco3)c2)CC1C(=O)Nc1ccc(Cl)cc1 (centres unmarked) [Example E-008, 1-acetyl-N-(4-chlorophenyl)-4-(3-(furan-2-yl)benzoyl)piperazine-2-carboxamide] | – | 50 µM
9 | O=C(Nc1ccc(Cl)cc1)C1CN(C(=O)c2cccc(-c3ccco3)c2)CCN1C(=O)Nc1ccccc1 (centres unmarked) [Example E-009, N2-(4-chlorophenyl)-4-(3-(furan-2-yl)benzoyl)-N1-phenylpiperazine-1,2-dicarboxamide] | – | 18 µM
10 | CC(C)NC(=O)N1CCN(C(=O)c2cccc(-c3ccco3)c2)CC1C(=O)Nc1ccc(Cl)cc1 (centres unmarked) [Example E-010, N2-(4-chlorophenyl)-4-(3-(furan-2-yl)benzoyl)-N1-isopropylpiperazine-1,2-dicarboxamide] | – | 24 µM
11 | O=C(Nc1ccc(Cl)cc1)C1CN(C(=O)c2cccc(-c3ccco3)c2)CCN1C(=O)NC1CCCC1 (centres unmarked) [Example E-011, N2-(4-chlorophenyl)-N1-cyclopentyl-4-(3-(furan-2-yl)benzoyl)piperazine-1,2-dicarboxamide] | – | 14 µM
12 | C=CCNC(=O)N1CCN(C(=O)c2cccc(-c3ccco3)c2)CC1C(=O)Nc1ccc(Cl)cc1 (centres unmarked) [Example E-012, N1-allyl-N2-(4-chlorophenyl)-4-(3-(furan-2-yl)benzoyl)piperazine-1,2-dicarboxamide] | – | 25 µM
13 | CCCOC(=O)N1CCN(C(=O)c2cccc(-c3ccco3)c2)CC1C(=O)Nc1ccc(Cl)cc1 (centres unmarked) [Example E-013, propyl 2((4-chlorophenyl)carbamoyl)-4-(3-(furan-2-yl)benzoyl)piperazine-1-carboxylate] | – | 18 µM
14 | CCOC(=O)N1CCN(C(=O)c2cccc(-c3ccco3)c2)CC1C(=O)Nc1ccc(Cl)cc1 (centres unmarked) [Example E-014, ethyl 2((4-chlorophenyl)carbamoyl)-4-(3-(furan-2-yl)benzoyl)piperazine-1-carboxylate] | – | 16 µM
15 | O=C(Nc1ccc(Cl)cc1)C1CN(C(=O)c2cccc(-c3ccco3)c2)CCN1C(=O)Oc1ccccc1 (centres unmarked) [Example E-015, phenyl 2((4-chlorophenyl)carbamoyl)-4-(3-(furan-2-yl)benzoyl)piperazine-1-carboxylate] | – | 26 µM
16 | COCCOC(=O)N1CCN(C(=O)c2cccc(-c3ccco3)c2)CC1C(=O)Nc1ccc(Cl)cc1 (centres unmarked) [Example E-016, 2-methoxyethyl 2((4-chlorophenyl)carbamoyl)-4-(3-(furan-2-yl)benzoyl)piperazine-1-carboxylate] | – | 16 µM
17 | O=C(Nc1ccc(Cl)cc1)C1CN(C(=O)c2cccc(-c3ccco3)c2)CCN1Cc1ccccc1 (centres unmarked) [Example E-017, 1-benzyl-N-(4-chlorophenyl)-4-(3-(furan-2-yl)benzoyl)piperazine-2-carboxamide] | – | 16 µM
18 | CN1CCN(C(=O)c2cccc(-c3ccco3)c2)CC1C(=O)Nc1ccc(Cl)cc1 (centres unmarked) [Example E-018, N-(4-chlorophenyl)-4-(3-(furan-2-yl)benzoyl)-1-methylpiperazine-2-carboxamide] | – | 8.7 µM

More lines, now with the values ahead:

Row | IC50 | IC50 (19 h) | Compound
19 | 0.93 µM | – | COC1CC(C(=O)Nc2ccc(Cl)cc2)CN(C(=O)c2cccc(-c3ccco3)c2)C1 (single isomer, unassigned) [Example E-045, N-(4-chlorophenyl)-1-(3-(furan-2-yl)benzoyl)-5-methoxypiperidine-3-carboxamide]
20 | 2.3 µM | – | COC1CC(C(=O)Nc2ccc(Cl)cc2)CN(C(=O)c2cccc(-c3ccco3)c2)C1 (single isomer, unassigned) [Example E-046, N-(4-chlorophenyl)-1-(3-(furan-2-yl)benzoyl)-5-methoxypiperidine-3-carboxamide]
21 | 30 µM | – | O=C(NC1CC(C(=O)Nc2ccc(Cl)cc2)CN(C(=O)c2cccc(-c3ccco3)c2)C1)c1ccccc1 (single isomer, unassigned) [Example E-054, 5-benzamido-N-(4-chlorophenyl)-1-(3-(furan-2-yl)benzoyl) piperidine-3-carboxamide]
22 | 2.2 µM | – | O=C(NC1CC(C(=O)Nc2ccc(Cl)cc2)CN(C(=O)c2cccc(-c3ccco3)c2)C1)c1ccccc1 (single isomer, unassigned) [Example E-055, 5-benzamido-N-(4-chlorophenyl)-1-(3-(furan-2-yl)benzoyl) piperidine-3-carboxamide]
23 | 18 µM | – | CN(Cc1ccccc1)C1CC(C(=O)Nc2ccc(Cl)cc2)CN(C(=O)c2cccc(-c3ccco3)c2)C1 (single isomer, unassigned) [Example E-060, 5-(benzyl(methyl)amino)-N-(4-chlorophenyl)-1-(3-(furan-2-yl)benzoyl)piperidine-3-carboxamide]
24 | 1.9 µM | – | CN(Cc1ccccc1)C1CC(C(=O)Nc2ccc(Cl)cc2)CN(C(=O)c2cccc(-c3ccco3)c2)C1 (single isomer, unassigned) [Example E-061, 5-(benzyl(methyl)amino)-N-(4-chlorophenyl)-1-(3-(furan-2-yl)benzoyl)piperidine-3-carboxamide]
25 | – | 1.4 µM | CC(c1ccc(-n2cccn2)cc1)N1CCCC(C(=O)Nc2ccc(Cl)cc2)C1 (single isomer, unassigned) [Example E-102, 1-(1-(4-(1H-pyrazol-1-yl)phenyl)ethyl)-N-(4-chlorophenyl)piperidine-3-carboxamide]
26 | 2.2 µM | – | CC(c1ccc(-n2cccn2)cc1)N1CCCC(C(=O)Nc2ccc(Cl)cc2)C1 (single isomer, unassigned) [Example E-103, 1-(1-(4-(1H-pyrazol-1-yl)phenyl)ethyl)-N-(4-chlorophenyl)piperidine-3-carboxamide]
